Data published in ChEMBL document CHEMBL4706557, “Synthesis and in vitro and in vivo biological evaluation of novel derivatives of flexicaulin A as antiproliferative agents” (Eur J Med Chem, 2020).
Activity calls are given as the source filed them. The calls are words filed in the database; no cut-off is given here.

How the values were obtained:
ECa-109 cell line [1] = assay: Induction of apoptosis in human EC109 cells assessed as activation of c-jun phosphorylation at Ser63 residue at 0.75 to 3 uM incubated for 24 hrs by Western blot analysis; assay type: functional, cell-based; conditions: dose 0.75-3 µM
[2] = Toxicity in BALB/c mouse assessed as RDW at 20 mg/kg, ip administered once daily for 14 days (reference value: 14.18 +/- 0.26 %); assay type: organism-based; conditions: in vivo, 336 h, time 14 day
ECa-109 cell line [3] = assay: Induction of apoptosis in human EC-109 cells xenografted in nude BALB/c mouse assessed as appearance of morphological changes at 20 to 40 mg/kg, ip administered once daily for 14 days by H and E staining based histopathological analysis; assay type: functional, organism-based; conditions: dose 20-40 mg/kg, time 14.0 day
ECa-109 cell line [4] = assay: Induction of apoptosis in human EC-109 cells xenografted in BALB/c mouse assessed as increase in phosphorylated ASK1 in tumor tissue at 20 to 40 mg/kg, ip QD for 14 days by Western blotting analysis; assay type: functional, organism-based; conditions: dose 20-40 mg/kg, time 14.0 day
ECa-109 cell line [5] = assay: Induction of apoptosis in human EC-109 cells assessed as apoptotic rate at 0.75 uM after 24 hrs by Annexin V-FITC/propidium iodide staining based flow cytometry (reference value: 5.3 %); assay type: functional
ECa-109 cell line [6] = assay: Induction of apoptosis in human EC-109 cells xenografted in nude BALB/c mouse assessed as apparent cellular loosening at 20 to 40 mg/kg, ip administered once daily for 14 days by H and E staining based histopathological analysis; assay type: functional, organism-based; conditions: dose 20-40 mg/kg, time 14.0 day
MGC-803 = assay: Antiproliferative activity against human MGC-803 cells assessed as inhibition of cell growth incubated for 72 hrs by SRB assay; assay type: functional, cell-based; conditions: MGC-803, 72 h
GES1 [7] = assay: Cytotoxicity against human GES1 cells assessed as reduction in survival rate after 24 to 72 hrs by SRB assay; assay type: cell-based; conditions: time 24-72 hrs
ECa-109 cell line [8] = assay: Induction of apoptosis in human EC109 cells assessed as increase in cleaved caspase 7 expression after 24 hrs by Western blot analysis; assay type: functional, cell-based
ECa-109 cell line [9] = assay: Induction of apoptosis in human EC109 cells assessed as change in phosphorylated JNK expression at 3 uM incubated for 24 hrs in presence of N-acetylcysteine by Western blot analysis; assay type: functional, cell-based
ECa-109 cell line [10] = assay: Induction of apoptosis in human EC-109 cells xenografted in BALB/c mouse assessed as change in Bax expression in tumor tissue at 40 mg/kg, ip QD for 14 days by Western blotting analysis relative to control; assay type: functional, organism-based; conditions: time 14.0 day
ECa-109 cell line [11] = assay: Induction of apoptosis in human EC109 cells assessed as increase in cleaved caspase 3 expression after 24 hrs by Western blot analysis; assay type: functional, cell-based
ECa-109 cell line [12] = assay: Induction of apoptosis in human EC109 cells assessed as increase in cleaved caspase 3 expression at 3 uM incubated for 24 hrs in presence of N-acetylcysteine by Western blot analysis; assay type: functional, cell-based
ECa-109 cell line [13] = assay: Antiproliferative activity against human EC109 cells assessed as inhibition of cell growth incubated for 72 hrs by SRB assay; assay type: functional, cell-based; conditions: ECa-109, 72 h
ECa-109 cell line [14] = assay: Induction of mitochondrial depolarization in human EC-109 cells assessed as depolarized cell population at 3 uM preincubated with N-acetylcysteine for 4 hrs followed by compound addition and measured after 24 hrs by JC1 dye based flow cytometry (reference value: 4.2 %); assay type: functional
ECa-109 cell line [15] = assay: Induction of apoptosis in human EC109 cells assessed as increase in BimL expression after 24 hrs by Western blot analysis; assay type: functional, cell-based
[16] = Toxicity in BALB/c mouse assessed as effect on red pulp and white pulp distribution in spleen at 20 to 40 mg/kg, ip administered once daily for 14 days by HE staining based assay; assay type: organism-based; conditions: in vivo, 336 h, dose 20-40 mg/kg, time 14 day
ECa-109 cell line [17] = assay: Induction of apoptosis in human EC109 cells assessed as increase in cytochrome C protein expression incubated for 24 hrs by Western blot analysis; assay type: functional, cell-based
ECa-109 cell line [18] = assay: Induction of apoptosis in human EC-109 cells xenografted in BALB/c mouse assessed as increase in phosphorylated JNK in tumor tissue at 20 to 40 mg/kg, ip QD for 14 days by Western blotting analysis; assay type: functional, organism-based; conditions: dose 20-40 mg/kg, time 14.0 day
ECa-109 cell line [19] = assay: Induction of apoptosis in human EC-109 cells assessed as apoptotic rate at 0.75 uM after 48 hrs by Annexin V-FITC/propidium iodide staining based flow cytometry (reference value: 3.2 %); assay type: functional
ECa-109 cell line [20] = assay: Antiproliferative activity against human EC109 cells assessed as survival rate preincubated with N-acetylcysteine for 4 hrs followed by compound addition and measured after 24 hrs by SRB assay; assay type: functional
GES1 [21] = assay: Cytotoxicity against human GES1 cells assessed as reduction in survival rate at 0 to 8 uM by SRB assay; assay type: cell-based; conditions: ges1, 8 µM, TDE = time-dependent effect, dose 0-8 µM
ECa-109 cell line [22] = assay: Induction of apoptosis in human EC109 cells assessed as increase in BimEL expression after 24 hrs by Western blot analysis; assay type: functional, cell-based
[23] = Toxicity in BALB/c mouse assessed as MCV at 20 mg/kg, ip administered once daily for 14 days (reference value: 49.90 +/- 0.37 fL); assay type: organism-based; conditions: in vivo, 336 h, time 14 day
[24] = Toxicity in BALB/c mouse assessed as abnormalities in liver at 20 to 40 mg/kg, ip administered once daily for 14 days by HE staining based assay; assay type: organism-based; conditions: in vivo, 336 h, dose 20-40 mg/kg, time 14 day
ECa-109 cell line [25] = assay: Induction of apoptosis in human EC-109 cells xenografted in BALB/c mouse assessed as increase in cleaved caspase 3 in tumor tissue at 40 mg/kg, ip QD for 14 days by Western blotting analysis relative to control; assay type: functional, organism-based; conditions: time 14.0 day
ECa-109 cell line [26] = assay: Antitumor activity against human EC109 cells xenografted in BALB/c mouse assessed as reduction in tumor weight at 20 mg/kg, ip administered every day for 14 days; assay type: functional, organism-based; conditions: time 14.0 day
ECa-109 cell line [27] = assay: Antitumor activity against human EC109 cells xenografted in nude BALB/c mouse assessed as reduction in tumor weight at 40 mg/kg, ip administered every day for 14 days; assay type: functional, organism-based; conditions: time 14.0 day
ECa-109 cell line [28] = assay: Induction of apoptosis in human EC-109 cells assessed as apoptotic rate at 3 uM preincubated with N-acetylcysteine for 4 hrs followed by compound addition and measured after 48 hrs by Annexin V-FITC/propidium iodide staining based flow cytometry (reference value: 3.8 %); assay type: functional
ECa-109 cell line [29] = assay: Induction of apoptosis in human EC-109 cells assessed as apoptotic rate at 1.5 uM after 24 hrs by Annexin V-FITC/propidium iodide staining based flow cytometry (reference value: 5.3 %); assay type: functional
ECa-109 cell line [30] = assay: Induction of apoptosis in human EC-109 cells xenografted in BALB/c mouse assessed as increase in Bax/Bcl-2 ratio in tumor tissue at 20 to 40 mg/kg, ip QD for 14 days by Western blotting analysis relative to control; assay type: functional, organism-based; conditions: dose 20-40 mg/kg, time 14.0 day
ECa-109 cell line [31] = assay: Induction of apoptosis in human EC-109 cells xenografted in BALB/c mouse assessed as increase in phosphorylated MKK4 in tumor tissue at 20 to 40 mg/kg, ip QD for 14 days by Western blotting analysis; assay type: functional, organism-based; conditions: dose 20-40 mg/kg, time 14.0 day
ECa-109 cell line [32] = assay: Induction of apoptosis in human EC-109 cells xenografted in BALB/c mouse assessed as decrease in Bcl-2 expression in tumor tissue at 20 to 40 mg/kg, ip QD for 14 days by Western blotting analysis relative to control; assay type: functional, organism-based; conditions: dose 20-40 mg/kg, time 14.0 day

## C=C1C(=O)[C@@]23[C@H](O)C[C@@H]4C(C)(C)CCC[C@@]4(COC(C)=O)[C@@H]2[C@@H](O)C[C@H]1[C@H]3OC(=O)c1ccc(CCl)cc1
ECa-109 cell line [1]
  Activity: Active
[2]
  Activity: 14.32%
ECa-109 cell line [3]
  Activity: Active
ECa-109 cell line [4]
  Activity: Active
ECa-109 cell line [5]
  Activity: 23.3%
ECa-109 cell line [6]
  Activity: Active
MGC-803
  IC50: 200 nM
GES1 [7]
  inhibition (INH): Dose-dependent effect
ECa-109 cell line [8]
  Activity: Dose-dependent effect
ECa-109 cell line [9]
  Activity: inactive
ECa-109 cell line [10]
  Activity: Active
ECa-109 cell line [11]
  Activity: Dose-dependent effect
ECa-109 cell line [12]
  Activity: inactive
ECa-109 cell line [13]
  IC50: 130 nM
ECa-109 cell line [14]
  Activity: 4%
ECa-109 cell line [15]
  Activity: Dose-dependent effect
[16]
  Activity: Non-Toxic
ECa-109 cell line [17]
  Activity: Dose-dependent effect
ECa-109 cell line [18]
  Activity: Active
ECa-109 cell line [19]
  Activity: 78.9%
ECa-109 cell line [20]
  Activity: 90%
GES1 [21]
  inhibition (INH): Tde
ECa-109 cell line [22]
  Activity: Dose-dependent effect
[23]
  Activity: 49.5 fL
[24]
  Activity: Non-Toxic
ECa-109 cell line [25]
  Activity: Active
ECa-109 cell line [26]
  inhibition: Active
ECa-109 cell line [27]
  inhibition: Active
ECa-109 cell line [28]
  Activity: 4.8%
ECa-109 cell line [29]
  Activity: 28.2%
ECa-109 cell line [30]
  Activity: Active
ECa-109 cell line [31]
  Activity: Active
ECa-109 cell line [32]
  Activity: Active
